In patent US12662707B2, “MYC amplification drives resistance to pan-RAS inhibitors in pancreatic cancer” (The Trustees of Columbia University in the City of New York, priority 2024, dated 2026):

What was measured:
[1] = system: CC3+ apoptotic cells, Cyclin A2; assay: CC3 and Cyclin A2 IHC in KPF/FC mice (tumor, colon); format: in vivo, mouse
Method: Tumor formation in KPF/FC (KrasLSL.G12D/+; p53flox/flox; Pdx1-Cre) mice was monitored by bi-weekly palpations until the detection of a mass, which was then confirmed by ultrasound. Tumor-bearing mice were randomized and assigned into groups (n=3/dose/timepoint). Single dose of RMC-7977 was administered orally at 10 mg/kg, 25 mg/kg and 50 mg/kg. The same vehicle formulation was used for the control group. Whole blood and tissue (tumors and colons) were harvested at indicated time points preserved as previously described (See Xenograft studies section).
All tissues were fixed for up to 24 hours using 10% neutral buffered formalin and then moved to 70% ethanol for long term storage. All stainings were performed on 4-μm tissue sections. Sections were deparaffinized using a Leica XL ST5010 autostainer, after which slides were subjected to heat-activated epitope retrieval. To block endogenous peroxidases, 20 min incubation in 3% H2O2 (Fisher Scientific) was performed. Slides were further blocked in serum for 1 hour, and primary antibodies were added for overnight incubation at 4° C. The next day, slides were washed and incubated with ImmPRESS HRP Horse Anti-Rabbit IgG Polymer Detection Kit (Vector Laboratories, MP-7401) for 30 min. Following incubation, ImmPACT DAB peroxidase (Vector Laboratories, SK-4100) was used to develop the stain and hematoxylin was used as nuclear counterstain. Stained slides were imaged at 40× magnification. Quantitative analyses of IHC images were performed using ImageJ.

[2] = system: KPC tumor-derived cell lines; assay: Viability of cell lines from RMC-7977 resistant or naive KPC tumors; format: cell-based, murine
From the text: Patient-derived xenograft (PDX) human PDAC cell lines were provided by Dr. Anirban Maitra (MD Anderson Cancer Center): Pa01C, Pa02C, Pa14C, and Pa16C. hF39 and hF43 cell lines were provided by Dr. David Tuveson (Cold Spring Harbor Laboratory). The UM147 PDX cell line was obtained from University of Michigan (PMID: 17283135). PaCaDD-137 and PaCaDD-165 were obtained from the German Collection of Microorganisms and Cell Cultures GmbH (DSMZ, world wide web dsmz.de/). All remaining cell lines were obtained from the American Type Culture Collection (ATCC). […]
PDAC murine cell lines harboring KrasG12D or KrasG12C mutations were seeded at 2×10^3 in a 96-well plate. […] Cell viability was evaluated 72 hours later by measuring adenosine triphosphate (ATP) levels using the CellTiter-Glo® Luminescent Cell Viability Assay (Promega, G7572) according to the manufacturer's instructions. For experiments comparing naive and resistant cell lines, live cells were fluorescently labelled using Calcein AM (20-minute incubation at 500 nM, Thermo Fisher) and counted using the SpectraMax i3X multimode detection platform (Molecular Devices). […] Growth percentage was calculated by normalizing drug-treated values to DMSO control, which was set to 100%. […]

For `CCn1c(-c2cc(N3CCN(C4CC4)CC3)cnc2[C@H](C)OC)c2c3cc(ccc31)-c1csc(n1)C[C@H](NC(=O)[C@H]1[C@@H]3COC[C@@H]31)C(=O)N1CCC[C@H](N1)C(=O)OCC(C)(C)C2` [RMC-7977], the “time to full restoration of Cyclin A2 levels in normal colon” value ([1]; KPF/FC mice) was ≤ 24 h, the “proliferation (Cyclin A2) in normal colon” value ([1]; KPF/FC mice, at 12 hours) was “transient decrease” and the “spike in CC3+ apoptotic cells in tumors” value ([1]; KPF/FC tumors, four hours after a single dose) was ~4 fold. The “apoptosis in normal tissues” value ([1]; all doses and time points) was “negligible or absent”, the “sensitivity of treatment-naive MycGain line K2293” value ([2]; K2293) was “lower sensitivity” and the “sensitivity of lines from resistant tumors vs control KPC cell line (K8484)” value ([2]; all six lines from resistant tumors, 3-5 days) was “less sensitive”.
